The experiment concerns CNPase. As to the kind of experiment: CNPase enzyme activity in Ang-II induced cardiac hypertrophy cells. It counts as cell-based. The settings on record: n = 3. The source says: The enzyme activity of CNPase in hypertrophic myocardium was detected by the detection method of calf intestinal alkaline phosphatase activity.

On to `C[C@@]12CC[C@@H]3[C@@](CC[C@H]4[C@@]3(C)CCC[C@@]4(C)C(=O)[O-])(CC1=O)C2.[Na+]` [STVNa, sodium isosteviol], for which the CNPase activity is, setting by setting: (STVNa + Ang II, cardiac hypertrophy induced by Ang-II, Control 1.000, Ang-II alone 0.2266) 0.9629 ± 0.411; (STVNa + Ang II, cardiac hypertrophy induced by Ang-II, Control 1.000, Ang-II alone 0.2266, listed as sodium isosteviol) “enhances CNPase activity”; (STVNa alone, no Ang-II, Control 1.000) 0.9326 ± 0.241.

Values taken from patent US20240016769A1, “Method for preparing compound or biological drug enhancing CNPase activity for treating heart diseases” (ZHUHAI YUANZHI HEALTH TECH CO. LTD., priority 2020, published 2024).
